Laboratory results as given in patent publication US20250304645A1, “Prodrugs of GLP-1 Polypeptide and Uses Thereof” (Novo Nordisk A/S, priority 2022, published 2025).

Assay: Prodrug to drug conversion half-life in vitro in PBS at pH 7.4 and 37° C. (UPLC-UV-MS)
Assay type: physicochemical
Details: prodrug to parent drug conversion, PBS pH 7.4, 37° C., first order T½
Method: The assay was performed to investigate the conversion half-life of prodrug to drug of the prodrugs of the invention.
Peptide stock solutions were prepared by dissolving freeze-dried powder in PBS buffer to a target of 200 μM. PBS-buffer was Dulbecco's Phosphate Buffered Saline without CaCl2 and MgCl2, gibco 14190-094 adjusted to pH=7.4. The pH of the peptide stock solutions was adjusted to 7.4 with 0.02 M HCl or 0.02M NaOH. Samples were filled in Agilent HPLC vials with fixed insert. Vials were capped to prevent evaporation. The HPLC vials were incubated at 37° C. and samples were withdrawn at different time points over a period of 2 weeks, flash frozen at −80° C., and stored at −20° C. until analysis.
Sample analysis was carried out using UPLC coupled to UV detection at 215 nm and MS (UPLC-UV-MS). One μl of sample was injected on to a Waters Acquity UPLC with a flow-through-needle injection system and on to a Waters Acquity CSH C18 column (1*150 mm), with a particle size of 1.7 μm and held at 55° C. A flow-rate of 100 μl/min was delivered with a Binary solvent manager pump having 0.1% formic acid in water as solvent A and 0.1% formic acid in acetonitrile as solvent B. Gradient elution was carried out using 15-32% B from 0 to 4 min followed by 32 to 48% B from 4 to 54 min. […]

| Compound | Conversion half-life | half-life (buffer) |
| --- | --- | --- |
| N{ε26}-[2-[2-[2-[[2-[2-[2-[[(4S)-4-carboxy-4-(17-carboxyheptadeca-noylamino)butanoyl]amino]ethoxy]ethoxy]acetyl]amino]ethoxy]ethoxy]acetyl]-N{ε}-[(2S)-2-[[(4S)-4-carboxy-4-(17-carboxyheptadecanoylamino)butanoyl]amino]-3-hydroxypropanoyl]Lys-Thz-[Aib8,Arg34]-GLP-1-(7-37)-peptide [Chem. 18] | 7.0 days | – |
| CC[C@H](C)[C@H](NC(=O)[C@H](Cc1ccccc1)NC(=O)[C@H](CCC(=O)O)NC(=O)[C@H](CCCCNC(=O)COCCOCCNC(=O)COCCOCCNC(=O)CC[C@H](NC(=O)CCCCCCCCCCCCCCCCC(=O)O)C(=O)O)NC(=O)[C@H](C)NC(=O)[C@H](C)NC(=O)[C@H](CCC(N)=O)NC(=O)CNC(=O)[C@H](CCC(=O)O)NC(=O)[C@H](CC(C)C)NC(=O)[C@H](Cc1ccc(O)cc1)NC(=O)[C@H](CO)NC(=O)[C@H](CO)NC(=O)[C@@H](NC(=O)[C@H](CC(=O)O)NC(=O)[C@H](CO)NC(=O)[C@@H](NC(=O)[C@H](Cc1ccccc1)NC(=O)[C@@H](NC(=O)CNC(=O)[C@H](CCC(=O)O)NC(=O)C(C)(C)NC(=O)[C@H](Cc1c[nH]cn1)NC(=O)[C@@H]1CSCN1C(=O)[C@@H](N)CCCCNC(=O)COCCOCCNC(=O)COCCOCCNC(=O)CC[C@H](NC(=O)CCCCCCCCCOc1cccc(C(=O)O)c1)C(=O)O)[C@@H](C)O)[C@@H](C)O)C(C)C)C(=O)N[C@@H](C)C(=O)N[C@@H](Cc1c[nH]c2ccccc12)C(=O)N[C@@H](CC(C)C)C(=O)N[C@H](C(=O)N[C@@H](CCCNC(=N)N)C(=O)NCC(=O)N[C@@H](CCCNC(=N)N)C(=O)NCC(=O)O)C(C)C [Chem. 8, N{ε26}-[2-[2-[2-[[2-[2-[2-[[(4S)-4-carboxy-4-(17-carboxyheptadeca-noylamino)butanoyl]amino]ethoxy]ethoxy]acetyl]amino]ethoxy]ethoxy]acetyl]-N{ε}-[2-[2-[2-[[2-[2-[2-[[(4S)-4-carboxy-4-[10-(3-carboxyphenoxy)decanoylamino]butanoyl]amino]ethoxy]ethoxy]acetyl]amino]ethoxy]ethoxy]acetyl]Lys-Thz-[Aib8,Arg34]-GLP-1-(7-37)-peptide] | – | 7.3 days |
